≈ marks a conversion by molar mass, not a printed value.

One may read the kinetic solubility as the concentration staying in solution when a stock, usually in DMSO, is diluted into the medium.

For the data set the following is noted: buffer; pH 7.4; 200.0 µM.
With `Cc1cccc(OC(C)C(=O)NC2CCS(=O)(=O)C2)c1C` (stereo not drawn), the solubility (kinetic) is 46.4 µg/mL (≈ 149 µM).

Consider `c1csc(-c2nc(-c3ccc(-c4ccon4)s3)no2)c1`, for which the solubility (kinetic) is 0.5 µg/mL (≈ 1.66 µM). The result for `Cc1ccccc1-c1noc(-c2ccccc2C(=O)O)n1` reads over 42 µg/mL.

Turning to `O=C(COc1cccnc1[N+](=O)[O-])Nc1ccc(F)cc1`, the kinetic solubility came to 11.5 µg/mL (≈ 39.5 µM). The result for `CCOC(=O)c1ccccc1NC(=O)c1cc2ccccc2o1` reads under 0.7 µg/mL; that for `O=C(c1cnsn1)N1CCC(CO)(Cc2cccc(F)c2)CC1`, 44.4 µg/mL (≈ 132 µM); that for `Nc1ncnc(N2CCc3ccccc32)c1[N+](=O)[O-]`, 1.8 µg/mL (≈ 7 µM). The result for `CC(=O)Nc1ccc(NS(=O)(=O)c2ccc(C)cc2)c([N+](=O)[O-])c1` reads over 52.4 µg/mL; that for `NC12CC3CC(C1)CC(CC(=O)O)(C3)C2`, 23.6 µg/mL (≈ 113 µM). Compound `COc1ccc(CCNC(=O)c2csc3c2CCCC3)cc1OC` displayed a kinetic solubility of over 51.8 µg/mL.

Turning to `Cc1cc2ccccn2c1C(=O)c1ccc(S(=O)(=O)N(C)C)cc1`, the solubility (kinetic) is 1.1 µg/mL (≈ 3.21 µM). Compound `Cc1cc2c([nH]c3ccccc32)c(C)[nH+]1.[Cl-]` displayed a kinetic solubility of 26.2 µg/mL. The result for `CSC1=NC2(C[C@H]2c2ccccc2)C(=O)N1C` (stereo partly drawn) reads over 36.9 µg/mL; that for `CCOC(=O)N1CCN(CC(O)c2c[nH]c3ccc(OC)cc23)CC1` (stereo not drawn), over 52.1 µg/mL; that for `COC(=O)C(NC(C)=O)(Nc1ccc(C)cn1)C(F)(F)F` (stereo not drawn), over 45.8 µg/mL.

In turn, `O=C(NCc1ccco1)C1CC(c2ccc(Cl)cc2)=NO1` (stereo not drawn) returned a solubility (kinetic) of 2.9 µg/mL (≈ 9.52 µM).

Regarding `Cc1ccc(NC(=O)C2CCCN(C(=O)Nc3ccc(F)cc3)C2)cc1` (stereo not drawn), the kinetic solubility is 13.4 µg/mL (≈ 37.7 µM). The result for `O=C(NN1CCOCC1)c1ccccc1` reads over 30.9 µg/mL. The result for `CCCCCCn1c(N2CCCC2)nc2c1c(=O)[nH]c(=O)n2C` reads over 47.9 µg/mL; that for `Cc1nc(SCC(N)=O)c([N+](=O)[O-])[nH]1`, over 32.4 µg/mL; that for `O=S(=O)(c1ccccc1)N1CCCC1c1cccs1` (stereo not drawn), over 44 µg/mL. The result for `COc1ccccc1C1Nc2ccccc2NC2=C1C(=O)CC(C)(C)C2` (stereo not drawn) reads 51.6 µg/mL (≈ 148 µM); that for `O=C(Nc1ccc(C(F)(F)F)cc1)OC1CN2CCC1CC2` (stereo not drawn), 45.1 µg/mL (≈ 143 µM); that for `O=[N+]([O-])c1ccc(C(O)CSC(=S)N2CCCCC2)cc1` (stereo not drawn), 2.6 µg/mL (≈ 7.96 µM). With `COc1cccc(Oc2ncnc(N)c2[N+](=O)[O-])c1`, the solubility (kinetic) amounted to 31 µg/mL (≈ 118 µM). The result for `Cc1ccc(NC(=O)CSc2ncc3ccccn23)cc1C` reads 40.5 µg/mL (≈ 130 µM); that for `COCCCNc1nc2nonc2nc1N1CCN(C2CCCC2)CC1`, 45.9 µg/mL (≈ 127 µM); that for `COc1ccc2oc(C(=O)OCC(=O)N3CCCCC3C)c(C)c2c1` (stereo not drawn), over 51.8 µg/mL. The compound `Cc1ccc(O)c(NC(=S)NC(=O)C(C)C)c1` returned a solubility (kinetic) of over 37.8 µg/mL.

In turn, `Cc1cc(C)c(NC(=O)C2CCCO2)c(C)c1` (stereo not drawn) had a solubility (kinetic) of over 35 µg/mL. On to `N#Cc1nc(-c2ccccc2)oc1N1CCC(C(N)=O)CC1`, for which the kinetic solubility is 39.7 µg/mL (≈ 134 µM). With `CCN(CC)CCCNc1ncnc2ccccc12.Cl`, the solubility (kinetic) was found to be 42.3 µg/mL.

`C=CCn1c(O)c(C(C)=Nc2cccc(C(=O)O)c2)c(=O)[nH]c1=O` came in with a solubility (kinetic) of over 49.4 µg/mL. The result for `Cc1nc2cc3c(cc2s1)OCO3` reads 13.1 µg/mL (≈ 67.8 µM); that for `O=C1NC(=Nc2ccccc2)SC1Cc1ccccc1` (stereo not drawn), 4.6 µg/mL (≈ 16.3 µM).

The compound `COc1ccc(/C=C(\C#N)C(=O)ONC2=NCCCCC2)cc1` yielded a kinetic solubility of 42.8 µg/mL (≈ 137 µM). `CCOC(=O)c1ccc(NC(=O)NCc2cccnc2)cc1`: the kinetic solubility was over 44.9 µg/mL. With `Cc1cc(C)nc(N2CCCC(C(=O)NC(C)C)C2)n1` (stereo not drawn), the kinetic solubility came to 41.1 µg/mL (≈ 149 µM). The compound `COc1ccc(OC)c(NC(=O)COC(=O)CCS(=O)(=O)c2ccc(Cl)cc2)c1` came in with a kinetic solubility of 27.5 µg/mL (≈ 62.2 µM).

In the case of `Cc1ccccc1Oc1nc(-c2ccccn2)nc2ccccc12`, the solubility (kinetic) came out at 35 µg/mL (≈ 112 µM). Regarding `COc1cc2c(cc1OC)CN(c1ccc(C(N)=O)cc1[N+](=O)[O-])CC2`, the solubility (kinetic) stood at 6.4 µg/mL (≈ 17.9 µM). The result for `CN(Cc1ccccc1)C(=O)c1ccco1` reads 30.3 µg/mL (≈ 141 µM); that for `CCCC(=O)OCC(=O)Nc1ccccc1C#N`, over 36.9 µg/mL; that for `O=C(CN1CCN(c2ccc(O)cc2)CC1)Nc1ccc(S(=O)(=O)N2CCCC2)cc1`, 44.6 µg/mL (≈ 100 µM). The compound `COc1ccc(Nc2ccc(C(F)(F)F)cc2[N+](=O)[O-])cn1` registered a solubility (kinetic) of 1.8 µg/mL (≈ 5.75 µM). The result for `COc1ccc(NC(=O)NC(c2ccccc2)c2ccccc2)c(OC)c1` reads under 0.4 µg/mL; that for `O=C(NC1CCCCCCC1)c1cccs1`, 22.5 µg/mL (≈ 94.8 µM). The result for `CCC(CC)C(=O)c1c[nH]c(C(=O)NCc2ccccn2)c1` reads over 44.9 µg/mL; that for `CC(=O)c1ccccc1NC(=O)c1ccc(OCc2c(C)noc2C)cc1`, 2.6 µg/mL (≈ 7.13 µM). `COc1cccc(-n2cnc3sc4c(c3c2=O)CCC4)c1` displayed a kinetic solubility of 5.9 µg/mL (≈ 19.8 µM). In the case of `CCCCN(C(=O)c1ccncc1)c1c(N)n(CCC)c(=O)[nH]c1=O`, the kinetic solubility stood at 37.1 µg/mL (≈ 107 µM). As for `CCn1c(SCC#N)nc2ccccc2c1=O`, the solubility (kinetic) was over 36.8 µg/mL. The compound `COc1ccc(S(=O)(=O)N2CCCCC2)cc1NC(=O)Cn1cnc2c1c(=O)n(C)c(=O)n2C` returned a kinetic solubility of 28.5 µg/mL (≈ 58.1 µM). As to `C=CCC1Cc2c(cccc2[N+](=O)[O-])C(CC=C)N1` (stereo not drawn), the kinetic solubility turned out to be 30.5 µg/mL (≈ 118 µM).

Compound `O=C(COc1ccccc1Cl)NCCNC(=O)c1ccncc1` gave a kinetic solubility of over 50.1 µg/mL.

In the case of `O=C(CSc1n[nH]c(=O)n1C1CC1)NCc1ccccc1Cl`, the solubility (kinetic) was over 50.8 µg/mL.

`CC(=O)OC(C(=O)NC1CCCCC1)c1ccccc1Cl` (stereo not drawn) came in with a solubility (kinetic) of 39.1 µg/mL (≈ 126 µM). Turning to `COc1ccc2[nH]c(C(=O)NCc3ccc4c(c3)OCO4)cc2c1`, the kinetic solubility was 1.1 µg/mL (≈ 3.39 µM). Consider `CCCNC(=O)c1oc2ccc3c(c2c1C)C(O)CC(C)(C)O3` (stereo not drawn), for which the kinetic solubility was over 47.6 µg/mL. The result for `CCOC(=O)C1CCCN(Cc2ccc(-c3ccccc3)cc2)C1` (stereo not drawn) reads 11.9 µg/mL (≈ 36.8 µM); that for `COc1ccc(NC(=S)NC(=O)C2CCC2)cc1`, 7.7 µg/mL (≈ 29.1 µM); that for `O=C(c1ccc(F)cc1)N1CCN(c2ccc([N+](=O)[O-])cc2-n2cccc2)CC1`, 3.3 µg/mL (≈ 8.37 µM).

Compound `O=P([O-])(CN1CCCCCC1)C1Cc2ccccc2C1` registered a solubility (kinetic) of 43.7 µg/mL. `CN(C)CCN=Cc1c(O)n(Cc2ccc3c(c2)OCO3)c(=S)[nH]c1=O` registered a solubility (kinetic) of 55.8 µg/mL (≈ 148 µM).

With `CCNC(=O)c1cnn(-c2ccccc2)c1-c1ccccc1`, the kinetic solubility was over 43.7 µg/mL.

The compound `O=C(Cc1c(F)cccc1Cl)OCC(=O)N1CCc2ccccc21` returned a solubility (kinetic) of 9.5 µg/mL (≈ 27.3 µM). `CCCN1CCN(CCCNC(=S)Nc2ccc(F)cc2)CC1` showed a solubility (kinetic) of 49 µg/mL (≈ 145 µM). In turn, `O=C(COC(=O)Cn1cnc2ccccc21)Nc1ccccc1C(F)(F)F` registered a solubility (kinetic) of over 56.6 µg/mL. The result for `CN(C)c1cccc(C(=O)NCc2ccccc2)c1` reads over 38.1 µg/mL; that for `COc1ccc(CNC(=O)/C=C/C(=O)O)cc1`, 35 µg/mL (≈ 149 µM). In turn, `COc1ccc(CN(C)C(=O)c2ccc(NS(=O)(=O)c3ccc4[nH]c(=O)[nH]c4c3)cc2)c(OC)c1OC` returned a kinetic solubility of over 79 µg/mL. `O=C(O)c1ccc(Cl)c(S(=O)(=O)N2CCCC2)c1` gave a kinetic solubility of over 43.5 µg/mL. The result for `CC1(C)Cc2cccc(OCC(=O)Nc3ccccc3C(F)(F)F)c2O1` reads 7.5 µg/mL (≈ 20.5 µM); that for `CCOc1ccccc1C(=O)NCC(=O)N1CCC(C)CC1`, over 45.7 µg/mL; that for `CCN(CC)C(=O)CSc1ncnc2sc(C)c(C)c12`, 43.4 µg/mL (≈ 140 µM). The result for `O=C(NCC1CC1)Nc1cccs1` reads over 29.4 µg/mL; that for `CCOC(=O)c1ccc(NC(=O)CSCCC(=O)O)cc1`, 45.1 µg/mL (≈ 145 µM); that for `Cc1cc(Cl)ccc1Oc1ncnc2onc(C)c12`, 1.9 µg/mL (≈ 6.89 µM). In turn, `CCC(C)NC(=O)C1=CCN(S(=O)(=O)c2ccc(C)cc2)CC1` (stereo not drawn) yielded a solubility (kinetic) of 43.5 µg/mL (≈ 129 µM). The result for `Fc1ccc(N2CN(Cc3cccnc3)CNC2=S)cc1` reads over 45.4 µg/mL; that for `COc1ccccc1-n1nc(C)c(-c2ccccc2)c1N`, over 41.9 µg/mL. Compound `COc1ccc(/C=C2\SC(N)=NC2=O)cc1Br` yielded a kinetic solubility of 5.3 µg/mL (≈ 16.9 µM). The result for `COc1ccc(NC(=O)NC2CCCc3ccccc32)cc1` (stereo not drawn) reads 1.9 µg/mL (≈ 6.41 µM); that for `O=C(COC(=O)c1cc(S(=O)(=O)N2CCOCC2)ccc1F)NC1CC1`, 55.1 µg/mL (≈ 143 µM); that for `COc1ccccc1NC(=O)COC(=O)C1CC(=O)N(c2ccc3c(c2)OCCO3)C1` (stereo not drawn), 37.8 µg/mL (≈ 88.6 µM). As for `CN1CCC(OC(=O)COc2ccc(F)cc2)CC1.Cl`, the kinetic solubility was over 45.6 µg/mL.

Turning to `COC(=O)CSc1nc(N)c(C#N)c(-c2ccc(O)cc2)c1C#N`, the kinetic solubility came to 0.6 µg/mL (≈ 1.76 µM). The result for `CC1CCCC(C)N1C(=O)COC(=O)c1c[nH]c2ccccc12` (stereo not drawn) reads 8.1 µg/mL (≈ 25.8 µM); that for `Cc1cc(=O)n(C(C)(C)C)c(=O)n1Cc1ccccc1`, over 40.9 µg/mL.

For `Cc1ccc(S(=O)(=O)NC(Cc2ccccc2)C(=O)O)cc1C` (stereo not drawn), the kinetic solubility was over 50 µg/mL. `COc1cc(SC)ccc1C(=O)N(Cc1ccccc1)c1ccccc1` had a solubility (kinetic) of 6.3 µg/mL (≈ 17.3 µM).

In turn, `CCC(/C=N/NC(=O)c1ccccc1F)CC` yielded a solubility (kinetic) of over 35.4 µg/mL. The result for `CCOC(=O)c1cnc2c(ccc3ccccc32)c1NCCN(C)C` reads 36.3 µg/mL (≈ 108 µM); that for `Cc1ccc(S(=O)(=O)NCc2ccncc2)c(C)c1C`, 34.7 µg/mL (≈ 119 µM). The result for `C/C=C(\C)C(=O)N1CCC(C(=O)c2ccccc2)CC1` reads over 40.7 µg/mL; that for `Cc1ccc(NC(=S)NC(=O)c2cccs2)cc1F`, 1.6 µg/mL (≈ 5.44 µM); that for `O=C(Nc1cc(Cl)cc(Cl)c1)c1coc(=O)c(Br)c1`, 5.1 µg/mL (≈ 14 µM). For the compound `O=C(NOCc1ccccc1)c1ccc(Cl)cc1Cl`, the kinetic solubility was 36.4 µg/mL (≈ 123 µM). Turning to `CC(=O)Nc1ccc(S(=O)(=O)Nc2nccs2)cc1`, the solubility (kinetic) was over 44.6 µg/mL. The result for `CC(=O)CCSc1ncnc2sc(-c3ccccc3)cc12` reads 0.6 µg/mL (≈ 1.91 µM); that for `Cc1ccc(SCc2cn3c(C)cc(C)nc3n2)cc1`, over 42.5 µg/mL. As to `CC1(C)CC(=O)C=C(Nc2ccc([N+](=O)[O-])cc2)C1`, the kinetic solubility worked out at 22.8 µg/mL (≈ 87.6 µM). The result for `CCOC(=O)c1ccc(NC(=S)NC(=O)C2CCCC2)cc1` reads under 0.3 µg/mL.

For the origin of these results see PubChem BioAssay AID1996.
